What all share (type): cell-based, human
In experiment [1] the test system is SGC-7901 early differentiation gastric cancer cell. As to the kind of experiment: MTT cell growth inhibition assay, SGC-7901. The following applies: Homo sapiens, 48 h incubation. Put shortly: (§1)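 After one day of attachment at 30–40% density, cells got four serial compound levels (1, 10, 50, 100 µM). Incubation lasted 48 h, followed by MTT and measurement at 492 nm.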

The next experiment deals with cyclin D1. As to the kind of experiment: Western blotting, cyclin D1. The following applies: BEL-7402, 12 h, immunoblot, dose-dependent. The protocol:
BEL-7402 cells were harvested in logarithmic growth phase and the adherent and floating cells were collected after 12 h of drug treatment. The collected cells were resuspended in cold RIPA buffer (100 mM NaCl, 100 mM Tris (pH7.4), 10% Triton X-100, 1 mM PMSF, pH7.5) with 0.1 µM leupetin protease inhibitor as well as 1 µg/mL pepstatin and cracked on ice for 30 min. Then according to the reference to did immunoblotting assay.

The next experiment has as its system BEL-7402 cells. As to the kind of experiment: Analysis for cell cycle by flow cytometry. The following applies: BEL-7402, 12 h incubation, concentration-dependent increase from-to (0.01, 0.05, 0.1 µM). How it is done: BEL-7402 cells were plated 6-well plates with 5.0 × 10^5 cells/well for overnight (O/N) and were synchronised at the G0 phase by serum starvation (0.1% FBS in RPMI-1640) for 24 h. Then the cells were incubated with 0.01, 0.05, 0.1 µM of 6h and 0.1 μM of taxol, respectively. Vehicle group was treated with 0.1% DMSO. Following 12 h of incubation, the cells were detached with 0.05% trypsin/5 mM EDTA and centrifuged at 1000 rpm for 10 min, and fixed in 70% ethanol at −20 °C for O/N. Then, the cells were subsequently analysed the cell cycle distribution by flow cytometry using a FACSCalibur flow cytometer with Cell Quest software (Becton-Dickinson, Franklin Lakes, NJ, USA), plotting at least 30,000 events per sample[22]. The percentage of cells in the G0/G1, S, and G2/M phases of the cell cycle were determined using the ModFit LT version 4.0 software package (Verity Software, Topsham, ME, USA).

The subject of the next experiment is MGC-803 cells. As to the kind of experiment: MTT cell growth inhibition assay, MGC-803. The following applies: for IC50: MTT, 48 h incubation, MGC-803. Put shortly:
as §1

For orientation: IC50 means the concentration that gives 50% inhibition. The low end stands for greater potency in that assay, the high end for weaker potency in that assay.

With `COc1cc(/C(C#N)=C/c2ccc(C)cc2)cc(OC)c1OC` [Compound 6h, (Z)-3-(p-Tolyl)-2-(3,4,5-trimethoxyphenyl)acrylonitrile], the IC50 was more than 100 µM in experiment [1]; 0.01 to 7.21 µM with MGC-803 cells (Homo sapiens, MGC-803, 48 h); less than 0.01 µM with MGC-803 cells. The “expression of cyclin D1 compared with the vehicle group” value in the experiment on cyclin D1 was “lower expression”. The “percentage of S cell population” value with BEL-7402 cells is listed as 4.44–19.35%. Moreover, the “fold more active than taxol against MGC-803 cells” value in the experiment on MGC-803 cells was found to be 6 fold.

The record behind these values is article PMC6161602, “Synthesis and characterisation of (Z)-styrylbenzene derivatives as potential selective anticancer agents” (Journal of Enzyme Inhibition and Medicinal Chemistry, 2018).
